# Measured values: patent US20150105349A1, “(R)-(-)-1,2-propanediol compositions and methods” (priority 2013, published 2015)
# Read-outs that look alike come from different tables or passages of the source.
# Legend:
# [1] = tested on: rodents; settings: oral; cited from earlier work
# [2] = tested on: humans; settings: based on intravenous infusion studies; cited from earlier work
# [3] = tested on: philtrum skin; assay: philtrum skin cooling bioassay (subjective coolness rating 0-3); format: in vivo, human; settings: for Ratio of AUC 75/25% R/S to 25/75% R/S (fold increase in cooling activity): 49% distilled water, 1% ethanol
# Source text: The term “alcoholic solvent” refers to a chemical with one to four carbons with at least one hydroxyl group attached to a carbon atom. A reliable place for topical application is the skin above the upper lip (above the vermilion border of the lips), on the philtrum, lateral to the philtrum until the nasolabial folds, and on the lower nostrils (subnasale). This part of the face is known to be densely innervated with cold receptors, second only to the surfaces of the eyeball and anogenitalia. Tingling, cool and cold sensations from the skin may be experienced and rated for time of onset and intensity.
# The intervals for recording sensations are 5 to 10 minutes, until two successive zeros are obtained. The results (shown in the Figures) are averaged values of 4 to 6 separate trials in the same individual. The data are plotted using SigmaPlot (Systat Software, Point Richmond, Calif.) and a smoothing function with a negative exponential was used for analysis and statistical fit of the results. The onset of drug action is taken as the time to reach 2 units of coolness intensity, and offset of drug action is the time when coolness intensity drops below 2, after previously surpassing 2 units. […] The duration of cooling action is defined as the offset time minus the onset time and the primary index of effect. As described in Examples, the test compounds were tested at 2 to 10 mg/mL of vehicle.
# For assays on the skin, the cooling agent(s) was dissolved in the alcoholic solvent to yield a 2, 2.5, 3, 5 or 10 mg/mL solution. Using a cotton-tipped applicator (e.g. Q-tips®) 0.10 to 0.25 mL of the test solution was applied to the skin above the upper lip, on the philtrum, and lateral to the philtrum up to the nasolabial folds, and the onset and duration of cooling sensations noted. […] The interval for recording sensations was at 5 to 10 minute intervals, until at least two successive zeros were obtained. The results were averaged values of 3 to 6 separate trials in the same individual. The “onset” is the time taken to reach a coolness intensity value of 2. […] The “off-set” is when the coolness intensity drops below 2, and the duration is the time of off-set minus the time of onset. The area under the curve (AUC) gives an estimate of the intensity and duration of drug action and can be obtained from the plotted data using SigmaPlot (Systat Software, Point Richmond, Calif.). The AUC unit is the product of cooling intensity x min.
# [4] = tested on: dorsal surface of the tongue; settings: 6 subjects; 100-fold variation in individual sensitivity; cited from earlier work
# [5] = molecular target: T1, cloned hTRPM8 channel (human TRPM8 gene, expressed in CHO cells) (Homo sapiens, UniProt Q7Z2W7); assay: agonist activity on cloned hTRPM8 channel, Fluo-8 calcium kit, FLIPR; format: cell-based
# T1 construct: host or cells: CHO cells
# Description: The in vitro effects of test articles were evaluated on cloned hTRPM8 channel (encoded by the human TRPM8 gene, expressed in CHO cells) using a Fluo-8 calcium kit and a Fluorescence Imaging Plate Reader (FLIPR^TETRA™) instrument. […] The total number of carbons in these trialkylphosphine oxides ranged from 12 to 15.
# To further examine solvent-receptor interactions, stock solutions of 1-7 [1-(Diisopropyl-phosphinoyl)-heptane] were prepared in dimethyl sulfoxide (DMSO) or DMSO containing 10% or 30% by volume of the three isomers of 1,2-propanediol, (R/S-PD, R-PD, and S-PD) and stored frozen. Six dose levels were tested ranging from 0.003 to 3 μM. Ten μl of the test article solution were added to 40 μl of cells in HBPS in glass-lined 384-well compound plates, and placed into the FLIPR instrument for the fluorescence readout (Molecular Devices Corporation, Union City, Calif.).
# [6] = tested on: periorbital skin and skin above the cheekbone; assay: cosmetic wipe over periorbital skin and skin above the cheekbone, six female subjects; format: in vivo, human; settings: 10 mg/mL in water (50%), 10% (S)-, 40% (R)-1,2-propanediol
# Description: Six female subjects working at a cosmetics company volunteered to try topical applications of 1-7 and/or 1-8, formulated at 10 mg/mL in water (50%) and 10% (S)-1,2-propanediol, 40% (R)-1,2-propanediol wt/wt. The liquid was put on a cotton square and wiped over the periorbital skin and the skin above the cheekbone. All the subjects remarked on a refreshing coolness on the skin at the sites of application within 2 min after application. There was a “wow” effect, that was considered pleasant and stimulating. […] Four of the six subjects said they felt more “awake and energetic.”
# [7] = tested on: itch (contact dermatitis) on the scalp; assay: topical application to scalp itch (contact dermatitis after hair dye), one individual; format: in vivo, human; settings: 5 mg/mL in 1% ethanol-99% (R)-1,2-propanediol, Yorker spout bottle
# Description: An individual developed intense itch (contact dermatitis) on the scalp at the base of the skull after use of hair dye. A cotton-tipped stick was used to apply CPS-410 or CPS-412, 5 mg/mL dissolved in a 1% ethanol-99% (R)-1,2-propanediol, to the site of itch. The itch sensations were suppressed within 5 min after application of either solution and this effect lasted for at least 8 hr. In a second experiment, the solutions were applied using a plastic bottle with a conical Yorker spout. This allowed more precise droplet delivery of the solution to the site of itch. […] The advantage of liquid formulation is the ease of uniform delivery to the inflamed site, a method not achievable with cream or ointment. Itch symptoms of hair and fur occur in seborrheic dermatitis, psoriasis, insect bites, canine pruritus, and allergic dermatitis. Liquid formulations containing (R)-1,2-propanediol and a cooling agent may be therapeutically valuable in these conditions.
# [8] = tested on: philtrum skin; assay: philtrum skin cooling bioassay (subjective coolness rating 0-3); format: in vivo, human
# [9] = molecular target: TRPM8 receptor (Homo sapiens, UniProt Q7Z2W7); settings: cited from earlier work
# [10] = 10 mg/mL in (R)-1,2-propanediol
# [11] = TRPM8 receptor assay, read-out: EC50 μM (95% C, L.)
# T1 sequence (Q7Z2W7 whole entry): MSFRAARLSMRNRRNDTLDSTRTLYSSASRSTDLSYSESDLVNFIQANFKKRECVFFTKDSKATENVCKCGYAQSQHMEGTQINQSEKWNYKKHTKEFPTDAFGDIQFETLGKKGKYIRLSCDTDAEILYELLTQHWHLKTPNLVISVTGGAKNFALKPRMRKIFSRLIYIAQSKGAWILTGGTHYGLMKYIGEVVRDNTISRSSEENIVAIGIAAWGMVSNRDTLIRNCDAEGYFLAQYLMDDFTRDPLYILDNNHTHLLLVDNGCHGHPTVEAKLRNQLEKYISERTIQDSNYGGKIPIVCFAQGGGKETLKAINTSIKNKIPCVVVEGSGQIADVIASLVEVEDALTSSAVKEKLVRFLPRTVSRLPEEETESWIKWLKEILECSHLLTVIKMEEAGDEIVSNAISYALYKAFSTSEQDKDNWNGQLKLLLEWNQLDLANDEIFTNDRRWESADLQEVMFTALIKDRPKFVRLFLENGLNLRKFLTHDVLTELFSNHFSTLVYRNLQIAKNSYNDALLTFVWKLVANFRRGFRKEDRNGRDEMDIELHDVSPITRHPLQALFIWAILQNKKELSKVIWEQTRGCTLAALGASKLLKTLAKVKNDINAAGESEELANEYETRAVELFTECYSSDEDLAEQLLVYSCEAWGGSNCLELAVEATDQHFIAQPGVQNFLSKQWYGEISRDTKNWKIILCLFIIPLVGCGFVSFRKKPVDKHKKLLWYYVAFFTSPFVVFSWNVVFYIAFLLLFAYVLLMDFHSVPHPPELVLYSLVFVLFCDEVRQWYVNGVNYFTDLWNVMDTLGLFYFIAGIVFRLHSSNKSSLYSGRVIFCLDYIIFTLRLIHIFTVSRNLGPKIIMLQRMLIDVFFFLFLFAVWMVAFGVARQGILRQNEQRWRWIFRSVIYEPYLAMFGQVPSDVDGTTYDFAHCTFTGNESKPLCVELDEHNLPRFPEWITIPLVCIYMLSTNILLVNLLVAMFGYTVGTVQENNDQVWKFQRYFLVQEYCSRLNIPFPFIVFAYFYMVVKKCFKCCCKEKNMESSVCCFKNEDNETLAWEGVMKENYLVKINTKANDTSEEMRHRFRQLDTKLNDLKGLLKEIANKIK
# Sequence of TRPM8 receptor (Q7Z2W7 whole entry): as above
compound,measurement,setting,value
"CC(O)CO (racemic) [racemic 1,2-propanediol]",median lethal dose,[1],about 25 mL/kg of body weight
same,estimated safe dose,[2],1 g per kg body weight per day
"CC(C)[C@@H]1CC[C@@H](C)C[C@H]1O (single isomer, unassigned) [(−)-menthol, reference compound]",cooling duration,"[3]; 10 mg/mL in 1,3-propanediol",13 ± 1 min
same,cooling duration,[3]; [10],21 ± 2 min
same,"average threshold for cooling on tongue (Threshold, μg)",[4],0.25 µg
CCCCCP(=O)(C(C)C)C(C)C [1-5],Ratio of AUC 75/25% R/S to 25/75% R/S (fold increase in cooling activity),[3],1.5
same,Potency Relative to I-menthol,[5]; TRPM8 receptor assay,0.7
same,EC50,[5]; [11],5.6 µM
CCCCCCP(=O)(C(C)C)C(C)C [1-6],Ratio of AUC 75/25% R/S to 25/75% R/S (fold increase in cooling activity),[3],1.7
same,Potency Relative to I-menthol,[5]; TRPM8 receptor assay,1.6
same,EC50,[5]; [11],2.4 µM
"CCCCCCCP(=O)(C(C)C)C(C)C [1-7, 1-(Diisopropyl-phosphinoyl)-heptane]",Ratio of AUC 75/25% R/S to 25/75% R/S (fold increase in cooling activity),[3],1.6
same,"ratio of the EC50 for the R versus S enantiomers of 1,2-propanediol",[5]; C.L. overlap,about 2
same,EC50,"[5]; HBPS, 30% volume series, read-out: EC50 (95% C.L.)",1.6 µM
same,Potency Relative to I-menthol,[5]; TRPM8 receptor assay,5.4
same,EC50,[5]; [11],0.7 µM
same,EC50,"[5]; stock in DMSO containing 30% by volume R-PD, read-out: EC50 (95% C.L.)",2.2 µM
same,EC50,"[5]; stock in DMSO containing 30% by volume R/S-PD, read-out: EC50 (95% C.L.)",2.9 µM
same,EC50,"[5]; stock in DMSO containing 30% by volume S-PD, read-out: EC50 (95% C.L.)",4.4 µM
same,irritation or redness on the skin after applications,[6],no irritation or redness
same,time facial skin felt cool and dry after application,[6]; all subjects,at least one hour
CCCCCCCCCP(=O)(C(C)C)C(C)C [1-9],Potency Relative to I-menthol,[5]; TRPM8 receptor assay,4.0
same,EC50,[5]; [11],0.9 µM
CCCCP(=O)(C(C)CC)C(C)CC (stereo not shown) [2-4],Ratio of AUC 75/25% R/S to 25/75% R/S (fold increase in cooling activity),[3],1.9
same,Potency Relative to I-menthol,[5]; TRPM8 receptor assay,0.3
same,EC50,[5]; [11],14.5 µM
CCCCCP(=O)(C(C)CC)C(C)CC (stereo not shown) [2-5],Ratio of AUC 75/25% R/S to 25/75% R/S (fold increase in cooling activity),[3],1.4
same,Potency Relative to I-menthol,[5]; TRPM8 receptor assay,2.2
same,EC50,[5]; [11],1.7 µM
CCCCCCCCP(=O)(C(C)CC)C(C)CC (stereo not shown) [2-8],Potency Relative to I-menthol,[5]; TRPM8 receptor assay,2.9
same,EC50,[5]; [11],1.3 µM
"CCCCCCP(=O)(C(C)CC)C(C)CC (stereo not shown) [CPS-147, 1-(Di-sec-butyl-phosphinoyl)-hexane]",Ratio of AUC 75/25% R/S to 25/75% R/S (fold increase in cooling activity),[3],1.6
same,Potency Relative to I-menthol,[5]; TRPM8 receptor assay,4.7
same,EC50,[5]; [11],0.8 µM
"CCOC(=O)[C@@H](C)NC(=O)[C@@H]1C[C@H](C)CC[C@H]1C(C)C [CPS-369, (R)-2-[((1R,2S,5R)-2-isopropyl-5-methyl-cyclohexanecarbonyl)-amino]-propionic acid ethyl ester]","Cooling Activity % (relative to (R)-1,2-propanediol)","[3]; 10 mg/mL in 1,3-propanediol, inactive = did not exceed 2 units of coolness",inactive
same,"Cooling Activity % (relative to (R)-1,2-propanediol)",[3]; [10],100%
same,"Cooling Activity % (relative to (R)-1,2-propanediol)","[3]; 10 mg/mL in (S)-1,2-propanediol, based on AUC",47%
same,"Cooling Activity % (relative to (R)-1,2-propanediol)","[3]; 10 mg/mL in ethanol, inactive = did not exceed 2 units of coolness",inactive
same,"Cooling Activity % (relative to (R)-1,2-propanediol)","[3]; 10 mg/mL in isopropanol, inactive = did not exceed 2 units of coolness",inactive
same,"Cooling Activity % (relative to (R)-1,2-propanediol)","[3]; 10 mg/mL in n-propanol, inactive = did not exceed 2 units of coolness",inactive
same,"Cooling Activity % (relative to (R)-1,2-propanediol)","[3]; 10 mg/mL in racemic 1,3-butanediol",10%
"CCCOC(=O)[C@@H](C)NC(=O)[C@@H]1C[C@H](C)CC[C@H]1C(C)C [CPS-410, (R)-2-[((1R,2S,5R)-2-isopropyl-5-methyl-cyclohexanecarbonyl)-amino]-propionic acid n-propyl ester]",sensations of coolness after application to scalp,[7],produced sensations of coolness
"CCCCOC(=O)[C@@H](C)NC(=O)[C@@H]1C[C@H](C)CC[C@H]1C(C)C [CPS-412, (R)-2-[((1R,2S,5R)-2-isopropyl-5-methyl-cyclohexanecarbonyl)-amino]-propionic acid n-butyl ester]",sensations of coolness after application to scalp,[7],less noticeable
"CCNC(=O)C1CC(C)CCC1C(C)C (stereo not shown) [WS-3, 2-Isopropyl-5-methyl-cyclohexanecarboxylic acid ethylamide]",duration of robust cooling,"[8]; 20 mg/mL in 97% (R)-1,2-propanediol-3% ethanol, with prickling and stinging sensations",38 ± 3 min
same,cooling effect,[8]; 20 mg/mL in absolute ethanol,did not produce significant cooling
"CCOC(=O)CNC(=O)[C@@H]1C[C@H](C)CC[C@H]1C(C)C [WS-5, [((1R,2S,5R)-2-isopropyl-5-methyl-cyclohexanecarbonyl)-amino]-acetic acid ethyl ester, reference compound]",cooling effect,[3]; 10 mg/mL in 100% ethanol,did not produce any cooling effect
CCO [ethanol],inhibition of TRPM8 receptor response to (−)-menthol,[9]; 0.5% ethanol in the medium,50%
same,TRPM8 receptor response to (−)-menthol,[9]; 3% concentration of ethanol,almost totally lost
"(R)-(−)-1,2-propanediol [(R)-1,2-propanediol]",effect on ethanol inhibition of WS-5 cooling,"[3]; added at 10%, 20% and 40% vol/vol to ethanolic solution of WS-5 10 mg/mL",reversed the ethanol inhibition in a dose-dependent relationship
